Measurements reported in PubChem BioAssay (NCI).
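Values below derive from 48-hour exposures of cells grown in 96-well plates, with endpoints linearly interpolated between the two concentrations bracketing the appropriate inhibition level. GI50: concentration for 50% inhibition of growth. TGI is the concentration that stops growth completely.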

Assays:
Assay in all cases: DTP human tumour cell line panel, 48 h
M19-MEL melanoma = system: M19-MEL melanoma
XF 498 CNS = system: XF 498 CNS
LXFL 529 NSCLC = system: LXFL 529 NSCLC
DLD-1 colon = system: DLD-1 colon
RXF-631 renal = system: RXF-631 renal
HOP-18 NSCLC = system: HOP-18 NSCLC
KM20L2 colon = system: KM20L2 colon
MDA-MB-435 = system: MDA-MB-435
MDA-N = system: MDA-N

| SMILES | TGI (M19-MEL melanoma) [µM] | TGI (LXFL 529 NSCLC) [µM] | TGI (DLD-1 colon) [µM] | TGI (HOP-18 NSCLC) [µM] | TGI (KM20L2 colon) [µM] | GI50 (MDA-MB-435) [µM] | TGI (MDA-MB-435) [µM] | also measured |
| --- | --- | --- | --- | --- | --- | --- | --- | --- |
| C#CCOCn1cnc2ncnc(Cl)c21 | > 100 | > 100 | > 100 | > 100 | > 100 | – | – | TGI (XF 498 CNS): > 100 µM; TGI (RXF-631 renal): > 100 µM |
| C[C@@H]1CN(Cc2ccc(/C=C/c3n[nH]c4ccc5nc(-c6cn[nH]c6C(F)(F)F)c6c(c5c34)CCCC6)cc2)C[C@H](C)O1 | – | – | – | – | – | 6.81 | 21.2 | – |
| CCOC(=O)Nc1nc2c(F)c(F)c(F)cc2s1 | – | – | – | – | – | > 100 | > 100 | – |
| Cc1cc2nc3ccc(N=Nc4ccc(N(C)C)cc4)cc3n(-c3ccccc3)c-2cc1=N | – | – | – | – | – | 0.0402 | 0.165 | – |
| O=C1Nc2ccccc2C12CC(c1ccccc1)=NN2 (stereo unspecified) | – | – | – | – | – | 1.66 | 4.5 | – |
| C(=C1\CCC/C(=C/c2ccccc2)C1=NNc1ccccc1)/c1ccccc1 | > 100 | > 100 | > 100 | > 100 | > 100 | – | – | TGI (RXF-631 renal): > 100 µM |
| OCCc1cnco1 | > 100 | > 100 | > 100 | > 100 | > 100 | – | – | – |
| CC(C)(C)c1ccc(C(=O)N/N=C/c2ccc(O)cc2O)cc1 | – | – | – | – | – | 0.806 | 21.6 | – |
| Cc1ccc(C(=O)Nc2ccc(CN3CCN(C)CC3)c(C(F)(F)F)c2)cc1C#Cc1cncc2ncccc12 | – | – | – | – | – | 0.286 | 1.56 | – |
| COC(=O)[C@]12CC[C@@H](C)[C@H](C)[C@@H]1C1=CC[C@@H]3[C@@]4(C)C(c5ncon5)=C[C@@](C)(CO)C4=CC[C@@]3(C)[C@]1(C)CC2 | – | – | – | – | – | 1.72 | 3.36 | – |
| Cc1cc(N(CCCNc2ccnc3cc(Cl)ccc23)Cc2cccs2)nc(Cl)n1 | – | – | – | – | – | 4 | 15.8 | – |
| O=C(Cc1ccc(/C=C/C(=O)c2ncc[nH]2)cc1)Nc1ccc(Br)cc1 | – | – | – | – | – | 3.7 | 15.6 | – |
| CC(C)[C@@H](C(=O)O[C@@H]1/C=C/C(=O)O[C@@H](C)CCC/C=C/[C@@H]2C[C@H](O)C[C@H]21)[N+](C)(C)C | – | – | – | – | – | > 100 | > 100 | – |
| N#Cc1cc2cc3c4c(c2oc1=O)CCCN4CCC3 | – | – | – | – | – | – | > 100 | TGI (MDA-N): > 100 µM |
| Cn1c2ccccc2c2cc(-c3ccccc3)c3c(c21)C(=O)C=CC3=O | 46.6 | 18.6 | 27.7 | – | – | – | 51.7 | TGI (XF 498 CNS): 32.1 µM; TGI (RXF-631 renal): > 100 µM; TGI (MDA-N): 41.8 µM |
| CC1OC(OC2C(OC3C[C@@]4(C)C(C[C@H](O)[C@H]5[C@H](C6(C)CCC(C(C)(C)O)O6)CCC54C)[C@]4(C)CC[C@@H](O)C(C)(C)C34)OC(CO)C(O)C2O)C(O)C(O)C1O (stereo partly specified) (tested in a mixture with another compound) | – | – | – | – | – | – | > 100 | TGI (MDA-N): > 100 µM |
| CC1=C(C(=O)Nc2ccccc2C)C(c2ccc(N(C)C)cc2)C(C(=O)Nc2ccccc2C)=C(C)N1 | > 100 | – | > 100 | – | > 100 | – | – | TGI (XF 498 CNS): > 100 µM; TGI (RXF-631 renal): > 100 µM |
| COc1ccc2nc(-c3ccccc3)cc(Nc3ccc(/C(C)=N/O)cc3)c2c1 | – | – | – | – | – | 3.4 | – | – |
| CSC(=S)N(C)NC(=O)c1cccc(C(=O)NN(C)C(=S)SC)n1 | > 100 | > 100 | > 100 | > 100 | > 100 | – | – | – |
| Clc1ccccc1-c1nc2ccccc2[nH]1 | – | – | – | – | – | > 100 | > 100 | – |

| SMILES | TGI (M19-MEL melanoma) [µM] | TGI (LXFL 529 NSCLC) [µM] | TGI (DLD-1 colon) [µM] | TGI (HOP-18 NSCLC) [µM] | TGI (KM20L2 colon) [µM] | GI50 (MDA-MB-435) [µM] | TGI (MDA-MB-435) [µM] | also measured |
| --- | --- | --- | --- | --- | --- | --- | --- | --- |
| COc1cc2c(c3oc(-c4ccc5c(c4)OCO5)c(O)c(=O)c13)CCC(C)(C)O2 | > 100 | > 100 | > 100 | > 100 | – | – | – | TGI (RXF-631 renal): > 100 µM |
| CN(C)c1nc(N(C)C)nc(N(C)CN(C)c2nc(N(C)C)nc(N(C)C)n2)n1 | > 100 | > 100 | > 100 | > 100 | > 100 | – | – | – |
| COC(=O)Nc1nc2c(OC)c(OC)c(OC)cc2[nH]1 | – | – | – | – | – | 2.09 | 5.71 | – |
| COc1cc(NCC(C#N)C#N)ccc1N=Nc1ccc([N+](=O)[O-])cc1 | > 100 | > 100 | > 100 | > 100 | > 100 | – | – | TGI (RXF-631 renal): > 100 µM |
| O=C1CC(c2ccccc2)Cc2nc3ccc(Cl)cc3cc21 (stereo unspecified) | – | – | – | – | – | 0.0235 | 0.0649 | – |
| COc1cc(C2c3cc4c(cc3C3OC(=O)C2C3CO)OCO4)cc(OC)c1OC (stereo unspecified) | – | – | – | – | – | 0.01 | 0.0374 | – |
| COc1ccc(N2CCN(CC(=O)N3CCN(c4nnc(-c5ccccc5)c(-c5ccccc5)n4)CC3)CC2)cc1 | – | – | – | – | – | 5.48 | > 100 | – |
| Cc1cn(C2C=CC(=O)C(C)O2)c(=O)[nH]c1=O (stereo unspecified) | 30.1 | 28.1 | 29.7 | 28.5 | 30.2 | – | – | TGI (XF 498 CNS): 26.4 µM; TGI (RXF-631 renal): 28.5 µM |
| CC(=O)OCCC/C(=C\c1ccc2ccccc2c1)[N+](=O)[O-] | – | – | – | – | – | 1.53 | 3.77 | – |
| O=C(Cc1ccccc1)Nc1nnc(CCSCCc2nnc(NC(=O)Cc3ccccc3)s2)s1 | – | – | – | – | – | 58.2 | > 100 | – |
| CCCNC(=O)c1cc2ccccc2cc1C(=O)OC | > 100 | > 100 | > 100 | > 100 | > 100 | – | – | TGI (XF 498 CNS): > 100 µM; TGI (RXF-631 renal): > 100 µM |
| N/C(=N\OC(=O)NC(Cl)=C(Cl)Cl)c1cc(C(F)(F)F)cc(C(F)(F)F)c1 | – | – | – | – | – | – | 48.5 | TGI (MDA-N): 59.5 µM |
| CC(=O)NNC(=O)c1nn(-c2ccc(Cl)cc2)cc1OC(C)=O | – | – | – | – | – | 30.3 | > 100 | – |
| CSc1nc2c(nc(N)n2C2OCC(O)C(O)C2O)c(=O)[nH]1 (stereo unspecified) | > 100 | > 100 | > 100 | > 100 | > 100 | – | – | TGI (XF 498 CNS): > 100 µM; TGI (RXF-631 renal): > 100 µM |
| CNC1=C(C)C(=O)C(C)=C(C(C)(C)CC(=O)n2cc(F)c(=O)[nH]c2=O)C1=O | > 100 | > 100 | > 100 | > 100 | > 100 | – | – | TGI (XF 498 CNS): > 100 µM; TGI (RXF-631 renal): > 100 µM |
| OC(COc1ccc(Cl)cc1Cl)CN1CCCC1 (stereo unspecified) | – | – | – | – | – | – | > 100 | TGI (MDA-N): > 100 µM |
| NC(=O)Nc1ccc2ncnc(Nc3ccc(Cl)cc3)c2c1 | – | – | – | – | – | 17.8 | 44.6 | – |
| O=C1C=C(N2CC2)c2ccccc2C1=O | – | – | – | – | – | 0.778 | 2.23 | – |
| COc1ccc(-c2cc(-c3ccccc3)c(C#N)c(=O)[nH]2)cc1 | > 100 | > 100 | > 100 | > 100 | > 100 | – | – | TGI (RXF-631 renal): > 100 µM |
| CC12C=CC(C)(O1)C1C2c2ccccc2S1(=O)=O (stereo unspecified) | – | – | – | – | – | 52.1 | > 100 | – |
